Key:
NIH-3T3 cells = experiment: Microtubule cytoskeleton staining of HPI-treated NIH-3T3 cells; assay type: cell-based; conditions: tubulin antibody staining
Description: Immunostaining of FLAG-Gli lines and NIH-3T3 cells. The FLAG-Gli1-expressing or FLAG-Gli2-expressing clonal cell lines were seeded into 24-well plates (80,000 cells/well) containing poly-D-lysine-coated 12-mm glass coverslips. […] The cells were subsequently fixed in 4% paraformaldehyde for 10 min at room temperature followed by treatment with methanol at −20° C. for 2 to 5 min. The cells were washed with PBS, permeabilized with 0.2% Triton X-100 for 2 to 5 min, and then blocked with PBS containing 2% BSA for 3 h at room temperature. The coverslips were then treated with mouse anti-FLAG M2 antibody (Sigma; 1:1,000 dilution in blocking buffer) and rabbit anti-Arl13b (10) (1:1,000 dilution in blocking buffer) for 3 h at room temperature and washed 3×5 min with PBS. The coverslips were incubated next with Alexa Fluor 594-conjugated goat anti-mouse IgG and Alexa Fluor 488-conjugated donkey anti-rabbit IgG antibodies (Invitrogen; 1:1,000 dilutions in blocking buffer) for 2 h at room temperature. After washes with PBS and a 5-min incubation with 4,6-diamidino-2-phenylindole (DAPI), the samples were mounted using Prolong Gold (Invitrogen) and imaged with an upright Leica DM4500B compound microscope. In order to quantify ciliary Gli2 localization, a circular region with diameter equal to the average width of cilia as determined by the anti-Arl13b antibody staining was manually placed at the distal end of each cilium. Regions were transferred from the anti-Arl13b antibody image to the anti-FLAG antibody image, and FLAG staining intensities within those areas were assessed. Between 40 and 80 cilia were analyzed for each condition. To normalize ciliary FLAG-Gli2 levels with respect to compound-dependent changes in total FLAG-Gli2 levels, the absolute average intensities for each condition were divided by the fold change in FLAG-Gli2 levels, as determined by the quantitative immunoblotting described above. Quantification of ciliary FLAG-Gli1 levels was performed in an analogous manner. Since HPI-4 perturbs primary cilia formation, only Arl13b-positive structures that could be clearly identified as cilia were used for Gli protein quanitification in HPI-4-treated cells. To assess cytoplasmic microtubule structures in cells treated with the HPIs, NIH-3T3 cells were cultured on poly-D-lysine-coated 12-mm glass coverslip, treated with the HPIs, and fixed with 4% paraformalehyde as described above. In place of the methanol treatment, the cells were permeabilitized with PBS containing 0.1% Triton X-100 for 1 min. Washing, blocking, and antibody incubation steps were then conducted as before, using mouse anti-<-tubulin (DM1-A, Sigma, 1:2,000 in blocking buffer). Secondary antibody treatments, DAPI staining, mounting, and imaging were then conducted as described above.

Hh pathway [1] = experiment: Shh-EGFP assay for Hh pathway activation; assay type: cell-based; conditions: Shh-N-conditioned medium; HPIs at ten-fold their Shh-LIGHT2 IC50 or 30 μM, whichever lower
Description: Shh-EGFP assay for Hh pathway activation. A Gli-dependent enhanced green fluorescent protein reporter (Shh-EGFP) was generated by excising firefly luciferase cDNA from the 8XGliBs vector using NcoI/Hpal, and ligating in EGFP cDNA excised from the pEGFP-C1 vector (Clontech) by NcoI/Af/II digestion. […] The cells were grown to confluency and treated with DMEM containing 0.5% CS, 100 U/mL penicillin, 0.1 mg/mL streptomycin, and 5% Shh-N-conditioned medium for 30 h. Following Shh-N treatment, the adherent cultures were dissociated into single cells with 0.05% Trypsin-EDTA (300 μL/well; Invitrogen) for 5 min. The cells were then suspended in 1 mL of PBS containing 1% CS and sorted on a BD FACSAria (excitation: 488 nm; emission: 530/30 nm) to enrich for cells expressing EGFP in a Shh-N-responsive manner. […] To identify Shh-EGFP clones with maximum Shh-N-responsiveness, individual lines were seeded into 24-well plates (45,000 cell/well) and cultured for 48 h. The cells were then treated with DMEM containing 0.5% CS, 100 U/mL pencillin, 0.1 mg/mL streptomycin or the culture medium plus 5% Shh-N-conditioned medium. After 30 h, the adherent cultures were treated with 0.05% trypsin-EDTA (150 μL/well; Invitrogen) for 5 min to dissociate them into single cells. The cells were then resuspended in 500 μL of PBS containing 1% CS and analyzed on a BD FACSCalibur (excitation: 488 nm; emission: 530/30 nm). 10,000 cells were used to assess EGFP expression levels as a measure of Hh pathway activation, and the data was analyzed using FlowJo software (Tree Star). Clones with low basal EGFP levels and maximum Shh-Ninduced EGFP expression were selected for further use. To assess the inhibitory activities of the HPIs in the Shh-EGFP cells, a clonal line with maximum Shh-responsiveness was cultured in 24-well plates as described above. […] The resulting EGFP levels were then evaluated by FACS and quantified using the FlowJo software.

Hh pathway [2] = experiment: Su(fu)-/- fibroblasts assay for Hh pathway activation; assay type: cell-based; conditions: for % Inhibition Su(fu)-/- MEFs: Gli-dependent firefly luciferase, 15 μM HPI-1, 20 μM HPI-2, 30 μM HPI-3, 30 μM HPI-4; for Toxicity noted in Su(fu)-/- MEFs: printed instead of % inhibition
Description: Su(fu)^−/− fibroblasts assay for Hh pathway activation. […] After 24 h, the cells were transfected with Fugene HD (Roche), 8xGliBS-FL (95 ng/well), phRLSV40 (5 ng/well; Promega), and pEGFP-C1 (300 ng/well as a carrier; Clontech) according to the manufacturer's protocols. […] The resulting firefly and Renilla luciferase activities were measured using a dual luciferase kit and Veritas microplate luminometer.

Smo = Smo (Mus musculus, UniProt P56726); experiment: BODIPY-cyclopamine/Smo binding assay; design: expressed in transfected cells; host or cells: HEK-293T; species or system murine; conditions: 5 nM BODIPY-cyclopamine, Smo-overexpressing HEK-293T cells, HPIs 20 μM
Smo, sequence (P56726 33-793): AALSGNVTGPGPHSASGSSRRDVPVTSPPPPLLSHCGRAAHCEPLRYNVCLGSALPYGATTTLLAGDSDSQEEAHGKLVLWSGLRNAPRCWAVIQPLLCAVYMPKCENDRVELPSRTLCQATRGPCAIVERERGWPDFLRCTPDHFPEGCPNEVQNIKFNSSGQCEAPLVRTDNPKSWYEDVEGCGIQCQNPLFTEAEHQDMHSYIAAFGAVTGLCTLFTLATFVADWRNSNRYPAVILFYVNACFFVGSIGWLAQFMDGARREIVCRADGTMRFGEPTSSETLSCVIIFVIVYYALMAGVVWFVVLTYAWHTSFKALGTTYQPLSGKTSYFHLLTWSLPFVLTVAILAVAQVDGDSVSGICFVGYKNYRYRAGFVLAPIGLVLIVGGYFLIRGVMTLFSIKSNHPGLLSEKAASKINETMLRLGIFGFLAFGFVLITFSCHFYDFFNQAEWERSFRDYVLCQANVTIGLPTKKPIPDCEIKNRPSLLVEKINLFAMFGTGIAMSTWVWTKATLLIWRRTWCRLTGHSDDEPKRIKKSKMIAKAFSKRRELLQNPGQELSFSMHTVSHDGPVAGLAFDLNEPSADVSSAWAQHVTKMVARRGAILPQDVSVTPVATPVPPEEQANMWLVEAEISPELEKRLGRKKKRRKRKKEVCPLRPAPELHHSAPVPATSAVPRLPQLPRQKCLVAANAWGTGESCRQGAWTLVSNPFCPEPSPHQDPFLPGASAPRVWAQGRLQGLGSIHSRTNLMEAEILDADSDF
Description: BODIPY-cyclopamine/Smo binding assay. Smo-binding assays were conducted with BODIPY-cyclopamine and Smooverexpressing and HEK-293T cells as previously described, using a CMV-promoter based SV40 origin-containing expression construct for Smo-Myc3 (murine Smo containing three consecutive Myc epitopes at the C-terminus). […] The cells were cultured until they reached 55 to 65% confluency (14-18 h), after which they were transfected with the Smo-Myc3 expression construct and FuGENE (Roche) according to the manufacturer's protocols. 24 h after transfection, the cells were washed with phosphate-buffered saline (PBS) and cultured in DMEM containing 0.5% FBS, 5 nM BODIPY-cyclopamine, and individual HPIs (20 μM). After 30 min, 10 μM Hoescht 33342 was added to each well, and the HPIs were incubated with the cells for an additional 60 min. The cells were then washed two times with PBS buffer, mounted in Prolong Gold (Invitrogen) and immediately imaged using a DM4500B compound microscope (Leica).

Row | SMILES | Microtubule disruption (NIH-3T3 cells) | % Inhibition Shh-GFP cells (Hh pathway [1]) | Repression of constitutive Hh pathway activity in Su(fu)-/- fibroblasts (Hh pathway [2]) | % Inhibition Su(fu)-/- MEFs (Hh pathway [2]) | BODIPY-cyclopamine competition (Smo) | % Inhibition Su(fu)-/- MEFs (Hh pathway [2]; 1440 min) | Toxicity noted in Su(fu)-/- MEFs (Hh pathway [2])
1 | COCCOC(=O)C1=C(C)NC2=C(C(=O)CC(c3ccccc3OC)C2)C1c1cccc(O)c1 (mixture of isomers) [Compound 8, 4-(3-Hydroxy-phenyl)-7-(2-methoxy-phenyl)-2-methyl-5-oxo-1,4,5,6,7,8-hexahydro-quinoline-3-carboxylic acid 2-methoxy-ethyl ester] | No | 86% | reduce Hh pathway activity in these cells to near-basal levels | 80.2% | No | – | –
2 | N#Cc1cc2c(nc1SCC(=O)Nc1nc3ccccc3s1)CCC2 [Compound 1] | No | 74.4% | – | – | No | 95.2% | –
3 | CCCCNC(=N)C(C)c1ccc(CC(C)C)cc1 (centres unmarked) [Compound 2] | No | 80.9% | – | – | No | 6.26% | –
4 | Cc1cc(/C=c2\sc3nc4ccccc4n3c2=O)c(C)n1C(C)C [Compound 3] | No | 60.5% | – | – | No | 92.8% | –
5 | O=C(Nc1cccc2ccccc12)OC[C@@H]1CCCN2CCCC[C@H]12 [Compound 4] | No | 63% | – | – | No | −7.55% | –
6 | CCC(C)NS(=O)(=O)c1ccc(Cc2ccc(S(=O)(=O)NC(C)CC)cc2)cc1 (centres unmarked) [Compound 5] | No | 84.9% | – | – | No | 45.7% | –
7 | CCOC(=O)c1cc2c(=O)n3ccccc3nc2n(C(C)C)c1=NC(=O)c1cc(OC)cc(OC)c1 [Compound 6] | No | 84.5% | – | – | No | 90% | –
8 | CCN1CCCC1CNC(=O)C1CCN(c2nc3c(C)cc(C)cc3s2)CC1 (centres unmarked) [Compound 7] | No | 90.5% | – | – | No | 32.1% | –
9 | CCOC(=O)c1cn(-c2ccccc2)nc1-c1ccc(OC)c(OC)c1 [Compound 9] | No | 86.5% | – | – | No | −26.9% | –
10 | O=S(=O)(Nc1cc(Cl)c(Cl)cc1Cl)c1ccc(F)cc1 [Compound 10] | No | 78.8% | – | – | No | 81.8% | –
11 | OCCNc1nc(N2CCN(c3ccccc3)CC2)nc2ccccc12 [Compound 11] | No | 76.7% | – | – | No | 70.7% | –
12 | CC(C)(C)N(CCNS(=O)(=O)c1ccc(-c2cc(C(F)(F)F)no2)s1)Cc1ccco1 [Compound 12] | No | 87.5% | – | – | No | – | Toxic at 20
13 | CN1CCN(C2Cc3ccccc3Sc3ccccc32)CC1 (centres unmarked) [Compound 13] | No | 78.3% | – | – | No | – | Toxic at 15
14 | CCOc1ccc2ncc(C(=O)c3ccc(C)cc3)c(N3CCCC3)c2c1 [Compound 14] | No | 67.2% | – | – | No | 84.3% | –
15 | O=C(Nc1nnc(S(=O)(=O)N2CCCCC2)s1)c1cccc(Br)c1 [Compound 15] | No | 86.9% | – | – | No | 89.1% | –
16 | CCOc1ccc(CCNc2cnnc3c(Cl)cccc23)cc1OCC [Compound 16] | No | 82.7% | – | – | No | 62.1% | –
17 | COc1ccc(OC)c2c1cc1n2CC(C)(C(=O)NC2CCCCCCC2)N(CCN(C)C)C1=O (centres unmarked) [Compound 17] | No | 80.2% | reduce Hh pathway activity in these cells to near-basal levels | – | No | 89.1% | –
18 | N#CC(C(=O)c1ccc(Cl)cc1Cl)=C1NC(=O)c2ccccc2N1 [Compound 18] | No | 80% | – | – | No | 58.5% | –
